In the assay the target is T1, FeuA (Bacillus subtilis, UniProt P40409, Q131C).
T1 sequence (P40409 21-317 Q131C): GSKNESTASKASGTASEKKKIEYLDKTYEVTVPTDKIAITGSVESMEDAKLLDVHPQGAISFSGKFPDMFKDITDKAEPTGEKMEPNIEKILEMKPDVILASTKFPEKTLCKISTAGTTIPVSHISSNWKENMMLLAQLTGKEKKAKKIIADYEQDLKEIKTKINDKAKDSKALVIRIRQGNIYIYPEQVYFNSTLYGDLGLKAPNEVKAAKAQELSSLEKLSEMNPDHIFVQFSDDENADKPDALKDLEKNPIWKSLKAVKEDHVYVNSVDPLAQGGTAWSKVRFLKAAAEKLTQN
Format: binding.

One may read the Kd as the equilibrium constant for the complex coming apart. Consider ferri-bacillibactin [FeBB], for which the Kd was determined as 20 ± 3 nM.

The values are drawn from paper PMC6838762 (Biophysical Journal, 2019).
